Test results published in publication PMC9732821, “Neurotrophic Activity and Its Modulation by Zinc Ion of a Dimeric Peptide Mimicking the Brain-Derived Neurotrophic Factor N-Terminal Region” (ACS Chemical Neuroscience, 2022).

B1: brain-derived neurotrophic factor (protein, UniProt P23560 1-247, looked up)
chain: MTILFLTMVISYFGCMKAAPMKEANIRGQGGLAYPGVRTHGTLESVNGPKAGSRGLTSLADTFEHVIEELLDEDQKVRPNEENNKDADLYTSRVMLSSQVPLEPPLLFLLEEYKNYLDAANMSMRVRRHSDPARRGELSVCDSISEWVTAADKKTAVDMSGGTVTVLEKVPVSKGQLKQYFYETKCNPMGYTKEGCRGIDKRHWNSQCRTTQSYVRALTMDSKKRIGWRFIRIDTSCVCTLTIKRGR
modifications: full-length
notes: full-length human BDNF produced recombinantly in Escherichia coli

Key:
ERK = ERK phosphorylation, in cell ELISA in differentiated SH-SY5Y cells; format: cell-based, human; conditions: for ERK phosphorylation increase vs unstimulated control: 10 min, 150 ng/mL BDNF or 10 μM peptide, three independent replicas in duplicate; for EC50 / maximal effect (Emax) of ERK phosphorylation: dose–response, differentiated SH-SY5Y, two independent replicas in duplicate; for maximal effect (Emax) of ERK phosphorylation: BDNF and d-bdnf not significantly different
Experimental: Figure 1 Activation of the TrkB receptor by BDNF and its mimetic peptide ligands. (A) Schematic picture of the human TrkB receptor fused to the EGFP construct (hTrkB-EGFP); recombinant human mature BDNF (hBDNF); monomeric peptide, m-bdnf; dimeric peptide, d-bdnf; scrambled s-bdnf. (B) WB showing Tyr phosphorylation (p-Tyr, top) and total TrkB levels (bottom) in SH-SY5Y cells transfected with hTrkB-EGFP in the absence (ctrl) or presence of 10 min stimulation with 150 ng/mL BDNF or 10 μM m-bdnf, d-bdnf, or s-bdnf. Samples were immunoprecipitated (IP) with the anti-GFP antibody before WB. The relative density of the bands is reported on the right of the blots, as mean ± SEM of five (BDNF) and four (peptides) independent replicas; each p-Tyr band density was divided for the respective TrkB band and normalized to the ctrl signal (***p < 0.001, *p < 0.05 vs ctrl, according to one-way ANOVA with Bonferroni’s multiple comparison test). (C) Scatter dot plot of ERK (left) and AKT (right) phosphorylation levels detected in differentiated SH-SY5Y cells, after stimulation with the same treatments as in (B). Phosphorylation levels were normalized to the cell number and reported as percentage versus the ctrl. Data ± SD were pooled from three independent replicas performed in duplicate. (D) ERK phosphorylation dose–response curve of BDNF and d-bdnf. Data ± SEM were pooled from two independent replicas performed in duplicate. (E) Intensity image of a TrkB-EGFP transfected cell (scale bar 10 μm). White square defines a region of the image that contains both the cell membrane and the background signal. […] The dashed black lines identify the mean values of B for the monomer and the dimer, as indicated. (G) Bar graph of mean ± SD ‘B-1’ values retrieved from N&B analysis for all the different conditions measured. The horizontal dashed lines indicate the ‘B-1’ average values assigned to the monomer (based on data from f-EGFP) and the dimer. Data (round circles) were pooled from two independent experiments. A one-way ANOVA with Dunnett’s multiple comparisons test was applied to compare data to the f-EGFP reference (*p < 0.05, ***p < 0.001, ****p < 0.0001). […]
(§1) ERK and AKT phosphorylation were assessed in a 96-well plate format, performing an in cell ELISA assay as previously described 4. SH-SY5Y or HEK 293T cells were seeded at a density of 5.000 and 80.000 cell/well in 96 multiwell respectively, and the former were differentiated as describe above.
Cells were treated as described for TrkB phosphorylation or reported in the graphs, then washed with 0.1% Triton X-100 in PBS and fixed with 4% paraformaldehyde. Cells were then permeabilized (1% BSA; 0.1% Triton X-100 in PBS) for 1 hour, at the end, cells were incubated overnight at 4°C with anti-phospho ERK (1:500, sc-7383, Santa Cruz) or phosphor AKT (1:500, sc-16646-R-, Santa Cruz) antibodies. Next day, after the incubation with HRP-conjugated secondary antibody (anti-mouse # 31430, Invitrogen; anti-rabbit A0545, Sigma-Aldrich) the TMB substrate was added and the absorbance was read at 450 nm. Cells were incubated with only the secondary antibody to obtain the aspecific binding (Blanks). The absorbances were normalized to the relative number of cells in each well that was determined using Crystal Violet staining. […]
°C with chicken anti-BDNF (1:100, G164A Promega) antibody diluted in 2.5% BSA/PBS. The next morning samples were incubated with an Alexa568-conjugated anti-chicken secondary antibody (1:500, Thermofisher) in 2.5% BSA/PBS for 2h at room temperature. Coverslips were mounted with Fluoroshield-DAPI (Sigma-Aldrich) and imaged with a laser scanning confocal microscope (Nikon A1, Eclipse Ti), using a 60× oil objective (NA 1 .40) and pinhole set to 1 AU. Images were acquired […]
nm laser (emission window 545-645 nm). BDNF fluorescence intensity was analysed using FIJI ImageJ software. Briefly, the background intensity was subtracted from all red channel fields and an […]

AKT = AKT phosphorylation, in cell ELISA in differentiated SH-SY5Y cells; format: cell-based, human; conditions: 10 min; 150 ng/mL BDNF or 10 μM peptide; three independent replicas in duplicate
Experimental: as §1
Cells were treated as described for TrkB phosphorylation or reported in the graphs, then washed with 0.1% Triton X-100 in PBS and fixed with 4% paraformaldehyde. Cells were then permeabilized (1% BSA; 0.1% Triton X-100 in PBS) for 1 hour, at the end, cells were incubated overnight at 4°C with anti-phospho ERK (1:500, sc-7383, Santa Cruz) or phosphor AKT (1:500, sc-16646-R-, Santa Cruz) antibodies. Next day, after the incubation with HRP-conjugated secondary antibody (anti-mouse # 31430, Invitrogen; anti-rabbit A0545, Sigma-Aldrich) the TMB substrate was added and the absorbance was read at 450 nm. Cells were incubated with only the secondary antibody to obtain the aspecific binding (Blanks). The absorbances were normalized to the relative number of cells in each well that was determined using Crystal Violet staining.
SH-SY5Y Immunofluorescence analysis
SH-SY5Y cells were seeded on a 24-well plate (5.000 cell/well) and differentiated with retinoic acid as describe above. Cells were treated for 60’ in an unsupplemented medium with BDNF (150 ng/ml) or d-bdnf (10 µM) alone or in combination. Samples were then fixed (4% PFA, 5% sucrose/PBS, 15 min) and subjected to a non-permeabilizing immunofluorescence assay. Briefly, cells were incubated with the blocking solution (5% BSA/PBS) for 1 h at room temperature and incubated overnight at 4 °C with chicken anti-BDNF (1:100, G164A Promega) antibody diluted in 2.5% BSA/PBS. The next morning samples were incubated with an Alexa568-conjugated anti-chicken secondary antibody (1:500, Thermofisher) in 2.5% BSA/PBS for 2h at room temperature. Coverslips were mounted with Fluoroshield-DAPI (Sigma-Aldrich) and imaged with a laser scanning confocal microscope (Nikon A1, Eclipse Ti), using a 60× oil objective (NA 1 .40) and pinhole set to 1 AU. Images were acquired […]
nm laser (emission window 545-645 nm). BDNF fluorescence intensity was analysed using FIJI ImageJ software. Briefly, the background intensity was subtracted from all red channel fields and an image threshold was applied to calculate the mean fluorescence intensity of the cells only. Results shown constitute the pool of fields stemming from two replicates.
ReNCell cell culture, differentiation and immunofluorescence analysis

EC50 (ERK) [µM] | EC50 (ERK; referred to the monomer form) [µM] | Molecule | ERK phosphorylation increase vs unstimulated control (ERK) | AKT phosphorylation increase vs unstimulated control (AKT) | maximal effect (Emax) of ERK phosphorylation (ERK)
 |  | HSDPARRGELSV-NH2 [m-bdnf, linear peptide fragment encompassing the first 12 amino acids of the mature NT N-terminal] | only BDNF and d-bdnf were able to induce a significant ERK and AKT phosphorylation increase | only BDNF and d-bdnf were able to induce a significant ERK and AKT phosphorylation increase | 
13.6 ± 3.87 |  | HSDPARRGELSVC-C-VSLEGRRAPDSH (disulfide) [d-bdnf] | significant ERK and AKT phosphorylation increase | significant ERK and AKT phosphorylation increase | 227.3 ± 6.3
 |  | SRAGPHLRDVSE-NH2 [s-bdnf] | only BDNF and d-bdnf were able to induce a significant ERK and AKT phosphorylation increase | only BDNF and d-bdnf were able to induce a significant ERK and AKT phosphorylation increase | 
 | 0.00069 ± 0.00024 | B1 | significant ERK and AKT phosphorylation increase | significant ERK and AKT phosphorylation increase | 237.1 ± 5.0
